Tests used:
β-glucuronidase = molecular target: T1, β-glucuronidase (Escherichia coli, UniProt P05804); assay: β-glucuronidase inhibition: residual activity (production of formula III compound from formula II compound, HPLC); type: biochemical; conditions: formula II substrate 100 nmol/ml, pH 6.8, 37° C., 20 min; for remaining activity at 0.0167 µM: 16.7 nM; for remaining activity at 0.0333 µM: 33.3 nM; for remaining activity at 0.1667 µM: 166.7 nM
T1 construct: purchased Sigma Chemical Co
Description: β-glucuronidase (manufactured by Sigma Chemical Co.) derived from Escherichia coli was added to a reaction solution comprising 50 μl of potassium phosphate buffer (pH: 6.8), a solution of a compound (100 nmol/ml) represented by the formula II and produced by Reference Example which will be described later and a specimen, and a reaction was allowed to proceed at 37° C. for 20 min. A glycine buffer (pH: 10.4) was added to terminate the reaction. 10 μl of the reaction mixture and 100 μl of an internal standard (camptothecin) solution were added to 1 ml of a 0.01N aqueous hydrochloric acid solution, and the mixture was applied to Bond Elute C18 (Analytichem), washed with water and 0.01N aqueous hydrochloric acid solution. Elution was effected with acetonitrile/water (1:2). 100 μl of the eluate obtained by elution with acetonitrile/water (1:2) was analyzed by high performance liquid chromatography (HPLC) under the following conditions, and the β-glucuronidase activity was calculated by using the amount of production of the compound represented by the formula III as an indication.
Apparatus: high performance liquid chromatograph HLC-803D manufactured by Toyo Soda
Analytical column: Tosoh ODS-80TM 250×4.6 mm (I.D.)
Thermostatic chamber of column: Tosoh CO-8011 40° C.
Guard column: Tosoh TSKguradgel ODS-120T
Detector: Shimazu Fluorescence HPLCMonitor RF-530
Detection wavelength: Ex380nm Em556nm
Autosampler: Tosoh AS-8000
Eluent: acetonitrile/water (1:2)

bone marrow = conditions: cited from earlier work

T1 sequence (P05804 whole entry): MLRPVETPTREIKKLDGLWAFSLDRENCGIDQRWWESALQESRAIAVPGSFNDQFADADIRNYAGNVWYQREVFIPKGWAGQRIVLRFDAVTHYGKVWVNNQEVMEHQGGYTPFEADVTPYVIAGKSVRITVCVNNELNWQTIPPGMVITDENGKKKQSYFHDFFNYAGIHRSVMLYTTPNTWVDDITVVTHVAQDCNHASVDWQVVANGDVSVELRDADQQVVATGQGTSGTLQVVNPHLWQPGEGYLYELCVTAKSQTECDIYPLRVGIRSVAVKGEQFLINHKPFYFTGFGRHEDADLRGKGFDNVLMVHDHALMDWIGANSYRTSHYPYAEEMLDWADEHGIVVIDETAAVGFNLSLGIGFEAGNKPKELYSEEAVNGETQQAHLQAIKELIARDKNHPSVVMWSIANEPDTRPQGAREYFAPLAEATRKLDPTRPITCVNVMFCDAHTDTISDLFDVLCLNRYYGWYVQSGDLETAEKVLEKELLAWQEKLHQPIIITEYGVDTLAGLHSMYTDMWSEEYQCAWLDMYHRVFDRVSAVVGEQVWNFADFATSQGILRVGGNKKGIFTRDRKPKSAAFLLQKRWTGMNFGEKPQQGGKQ

SMILES | remaining activity at 0.0167 µM (β-glucuronidase) [%] | remaining activity at 0.0333 µM (β-glucuronidase) [%] | remaining activity at 0.1667 µM (β-glucuronidase) [%] | toxicity (bone marrow)
COc1c(O[C@@H]2O[C@H](C(=O)O)[C@@H](O)[C@H](O)[C@H]2O)cc2oc(-c3ccccc3)cc(=O)c2c1O [Oroxylin A-7-O-glucuronide, oroxylin A-7-O-glucuronide] | 31.1 | 17 | 3 | –
O=C(O)[C@H]1O[C@@H](Oc2cc(-c3cc(=O)c4c(O)cc(O)cc4o3)ccc2O)[C@H](O)[C@@H](O)[C@@H]1O [Luteolin-3'-glucuronide, luteolin-3'-glucuronide] | 28.5 | 13.2 | 2.1 | –
O=C(O)[C@H]1O[C@@H](Oc2cc3oc(-c4ccccc4)cc(=O)c3c(O)c2O)[C@H](O)[C@@H](O)[C@@H]1O [Baicalin, baicalin] | 19 | 10.7 | 2.3 | –
CC[C@@]1(O)C(=O)OCc2c1cc1n(c2=O)Cc2cc3ccccc3nc2-1 [Camptothecin, camptothecin] | – | – | – | strong inhibition of bone marrow
